# Measured values: patent US20160303089A1, “COMPOUND PERTAINING TO NEUROPOIESIS AND DRUG COMPOSITION” (KYOTO UNIVERSITY, priority 2013, published 2016)
# Assays:
# [1] = target: T1, DYRK1A (Homo sapiens, UniProt Q13627); experiment: Tau phosphorylation in cell lines with induced expression of DYRK1A and tau protein (western blotting); format: cell-based; set-up: dose or concentration left out as unconfirmed; conditions: compound for 4 hours after induced expression of DYRK1A and tau
# Description: Moreover, the study was conducted to investigate whether the compound 3 inhibited the DYRK activity in the cells in vivo by using phosphorylation of tau protein (substrate) as a marker. First, cell lines that can induce the expression of DYRK1A and a tau protein by a drug were established. The cell lines were subjected to the drug treatment to induce the expression of DYRKIA and the tau protein. Then, the cells were treated with the compound 3 […] for 4 hours. After the cells were collected, the phosphorylation of the tau protein was detected by western blotting. The results confirmed that the treatment of the cells with the compound 3 inhibited the tau phosphorylation.
# [2] = test system: phosphorylation of tau protein; experiment: Tau phosphorylation in brain, acute cold water stress model (western blotting); format: in vivo; conditions: administered 30 minutes before cold water stress (10 minutes); brains collected 5 minutes later
# Description: Further, the study was conducted to investigate whether the compounds 1 to 2 inhibited the DYRK activity in the animal individuals in vivo by using phosphorylation of tau protein due to acute cold water stress as a marker. The animals were exposed to cold water stress for 10 minutes, and their brains were collected 5 minutes later. Then, the phosphorylation of the tau protein in the brains was confirmed by western blotting. Consequently, the phosphorylation of the tau protein was enhanced by the acute cold water stress. When the compound 1 or the compound 2 was administered to the animal individuals 30 minutes before they underwent the cold water stress, the tau phosphorylation caused by the cold water stress was inhibited.
# [3] = target: CLK1 (Homo sapiens, UniProt P49759); experiment: In vitro assay of the inhibition of protein phosphorylation activity; format: biochemical
# CLK1, sequence (P49759 whole entry): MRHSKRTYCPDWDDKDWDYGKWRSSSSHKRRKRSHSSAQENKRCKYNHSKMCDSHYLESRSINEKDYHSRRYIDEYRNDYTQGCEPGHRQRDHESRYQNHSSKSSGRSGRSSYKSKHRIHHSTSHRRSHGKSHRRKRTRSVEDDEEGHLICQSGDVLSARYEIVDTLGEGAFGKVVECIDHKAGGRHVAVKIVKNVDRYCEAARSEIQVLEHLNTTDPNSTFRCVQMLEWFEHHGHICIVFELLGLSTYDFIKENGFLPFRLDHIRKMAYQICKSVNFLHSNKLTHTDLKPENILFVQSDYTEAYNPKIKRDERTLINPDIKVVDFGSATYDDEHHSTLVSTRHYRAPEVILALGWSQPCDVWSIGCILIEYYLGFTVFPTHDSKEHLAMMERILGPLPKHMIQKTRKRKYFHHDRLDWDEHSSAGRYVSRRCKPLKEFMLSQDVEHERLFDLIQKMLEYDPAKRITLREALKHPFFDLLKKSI
# [4] = target: DYRKIB (Homo sapiens, UniProt Q9Y463); experiment: as above; format: biochemical
# DYRKIB, sequence (Q9Y463 whole entry): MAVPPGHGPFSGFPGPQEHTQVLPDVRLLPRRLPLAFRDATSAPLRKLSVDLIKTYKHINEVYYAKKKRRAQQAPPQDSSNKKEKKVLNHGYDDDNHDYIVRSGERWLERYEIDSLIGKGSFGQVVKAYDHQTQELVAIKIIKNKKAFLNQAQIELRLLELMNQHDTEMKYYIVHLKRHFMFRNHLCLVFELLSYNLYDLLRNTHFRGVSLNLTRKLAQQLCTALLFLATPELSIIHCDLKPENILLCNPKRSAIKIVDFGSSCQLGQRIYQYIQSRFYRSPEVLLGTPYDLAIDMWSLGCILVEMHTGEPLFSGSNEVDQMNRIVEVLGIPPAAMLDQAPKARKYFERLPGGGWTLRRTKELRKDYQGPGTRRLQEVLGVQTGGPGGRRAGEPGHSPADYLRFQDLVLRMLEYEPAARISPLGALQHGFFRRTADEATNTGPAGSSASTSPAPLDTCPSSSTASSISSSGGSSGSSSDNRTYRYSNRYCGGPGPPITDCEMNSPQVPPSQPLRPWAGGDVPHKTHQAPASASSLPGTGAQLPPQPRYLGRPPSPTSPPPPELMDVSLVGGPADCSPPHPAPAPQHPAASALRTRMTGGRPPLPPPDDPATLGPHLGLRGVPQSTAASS
# [5] = target: CLK2 (Homo sapiens, UniProt P49760); experiment: as above; format: biochemical
# CLK2, sequence (P49760 whole entry, species assumed): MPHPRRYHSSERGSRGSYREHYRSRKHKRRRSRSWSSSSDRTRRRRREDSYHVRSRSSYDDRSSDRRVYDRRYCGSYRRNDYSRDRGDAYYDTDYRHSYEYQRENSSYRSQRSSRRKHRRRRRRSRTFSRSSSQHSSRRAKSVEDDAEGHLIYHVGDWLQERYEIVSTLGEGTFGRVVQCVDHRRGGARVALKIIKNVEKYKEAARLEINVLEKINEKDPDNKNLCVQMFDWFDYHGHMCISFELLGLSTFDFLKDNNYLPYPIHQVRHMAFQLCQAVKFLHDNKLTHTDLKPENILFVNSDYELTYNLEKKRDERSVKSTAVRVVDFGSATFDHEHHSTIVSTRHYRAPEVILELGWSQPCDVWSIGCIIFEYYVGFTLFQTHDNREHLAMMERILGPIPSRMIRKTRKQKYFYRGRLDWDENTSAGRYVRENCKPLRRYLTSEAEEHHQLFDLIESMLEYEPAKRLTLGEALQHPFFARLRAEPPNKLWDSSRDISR
# [6] = target: T1, DYRK1A; experiment: as above; format: biochemical
# [7] = target: T2, DYRK2 (Homo sapiens, UniProt Q92630); experiment: as above; format: biochemical
# T2 construct: expressed in transfected cells; host or cells: HEK293 Flp-In
# T2 sequence (Q92630 1-601): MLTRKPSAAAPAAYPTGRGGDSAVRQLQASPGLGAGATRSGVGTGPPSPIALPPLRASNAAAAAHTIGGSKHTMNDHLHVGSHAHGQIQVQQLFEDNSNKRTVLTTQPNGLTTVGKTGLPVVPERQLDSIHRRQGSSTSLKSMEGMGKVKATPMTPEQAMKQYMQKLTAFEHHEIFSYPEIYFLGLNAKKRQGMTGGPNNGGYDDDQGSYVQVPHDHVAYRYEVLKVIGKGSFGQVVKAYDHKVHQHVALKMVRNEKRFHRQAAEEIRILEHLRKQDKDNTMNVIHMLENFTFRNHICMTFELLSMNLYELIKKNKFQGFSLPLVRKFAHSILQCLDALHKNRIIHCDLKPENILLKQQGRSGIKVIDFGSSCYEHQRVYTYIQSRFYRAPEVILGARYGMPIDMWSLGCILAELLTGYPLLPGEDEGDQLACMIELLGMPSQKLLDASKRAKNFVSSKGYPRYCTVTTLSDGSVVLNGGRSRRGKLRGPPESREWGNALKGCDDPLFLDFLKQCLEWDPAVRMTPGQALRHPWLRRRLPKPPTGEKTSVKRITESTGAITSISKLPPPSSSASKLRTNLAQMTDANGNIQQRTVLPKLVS
# [8] = target: CLK3 (Homo sapiens, UniProt P49761); experiment: as above; format: biochemical
# CLK3, sequence (P49761 whole entry, species assumed): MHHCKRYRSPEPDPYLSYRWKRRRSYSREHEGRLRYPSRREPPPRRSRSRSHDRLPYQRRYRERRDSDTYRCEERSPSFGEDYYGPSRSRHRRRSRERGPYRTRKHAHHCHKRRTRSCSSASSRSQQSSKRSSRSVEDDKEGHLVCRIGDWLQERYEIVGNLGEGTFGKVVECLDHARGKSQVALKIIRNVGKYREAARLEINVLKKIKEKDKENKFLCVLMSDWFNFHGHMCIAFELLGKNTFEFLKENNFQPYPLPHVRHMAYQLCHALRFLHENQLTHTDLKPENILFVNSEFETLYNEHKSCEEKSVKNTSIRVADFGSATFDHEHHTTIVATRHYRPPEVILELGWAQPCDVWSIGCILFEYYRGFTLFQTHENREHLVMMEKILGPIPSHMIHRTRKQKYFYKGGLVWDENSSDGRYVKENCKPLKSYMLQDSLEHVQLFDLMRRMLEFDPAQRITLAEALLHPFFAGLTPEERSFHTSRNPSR
# [9] = target: T3, DYRK3 (Homo sapiens, UniProt O43781); experiment: as above; format: biochemical
# T3 sequence (O43781 1-588): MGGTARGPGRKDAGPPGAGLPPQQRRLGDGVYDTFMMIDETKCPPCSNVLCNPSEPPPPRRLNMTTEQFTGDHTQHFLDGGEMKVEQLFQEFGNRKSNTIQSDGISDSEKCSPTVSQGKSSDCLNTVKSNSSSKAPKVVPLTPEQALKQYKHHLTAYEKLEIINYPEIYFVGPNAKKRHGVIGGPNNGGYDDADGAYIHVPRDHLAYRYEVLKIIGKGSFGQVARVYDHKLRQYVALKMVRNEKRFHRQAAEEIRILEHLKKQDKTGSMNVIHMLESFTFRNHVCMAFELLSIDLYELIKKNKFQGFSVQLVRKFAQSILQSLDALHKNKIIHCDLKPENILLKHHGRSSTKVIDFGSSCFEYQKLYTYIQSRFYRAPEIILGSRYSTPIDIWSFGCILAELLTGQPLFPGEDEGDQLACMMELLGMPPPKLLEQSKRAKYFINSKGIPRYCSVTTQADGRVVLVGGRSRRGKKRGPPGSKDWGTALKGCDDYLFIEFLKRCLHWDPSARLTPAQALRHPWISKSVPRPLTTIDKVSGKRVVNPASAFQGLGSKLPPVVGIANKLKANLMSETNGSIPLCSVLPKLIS
# [10] = test system: neural stem cells in the dentate gyrus of the hippocampus; experiment: Neurogenesis in dentate gyrus of hippocampus of mice (BrdU positive cells); format: in vivo, C57BL/6J mice; conditions: oral, 30 mg/kg and 100 mg/kg for 10 or 30 days; depended on the dosage; compared to solvent control
# Description: The effect of the compound 2 on neurogenesis in animal individuals (rodents) was studied. The subgranular zone of the dentate gyrus of the hippocampus is a region where neurogenesis occurs. In this region, 5-bromo-2′-deoxyuridine (BrdU) was used as a cell proliferation marker to specifically detect proliferating cells and quantitatively compare the number of proliferating cells. Specifically, the experiments were performed in the following manner. The compound 2 was prepared with a carboxymethyl cellulose solvent and orally administered repeatedly to 9-week-old male C57BL/6J mice (each weighing 25 g) in a dosage of 30 mg/kg and 100 mg/kg for 10 or 30 days. On the last day of the administration, 150 mg/kg of BrdU were intraperitoneally injected into the mice, and the samples were collected 24 hours later by perfusion fixation. Then, coronal sections of 50 μm were prepared by a microtome. After the denaturation of DNA by 1.5 N hydrochloric acid, an anti-BrdU antibody was used to detect BrdU that had been incorporated into the proliferating neural stem cells.
# [11] = target: T4, DYRKIA (Homo sapiens, UniProt Q13627); experiment: Cyclin D1 expression in HEK293 Flp-In cell line with inducible DYRK expression (western blotting); format: cell-based
# T4 construct: expressed in transfected cells; host or cells: HEK293 Flp-In
# Description: (§1) Using cell lines that can induce the expression of DYRKIA, DYRKIB, and DYRK2 by the addition of a drug, the expression level of cyclin D1 was examined when DYRK was overexpressed (see FIG. 8). Specifically, the experiments were performed in the following manner.
# (§2) A HEK293 Flp-In cell system was used to prepare cell lines that can induce the expression of each of DYRKIA, DYRK1B, and DYRK2 of the DYRK family by the addition of a drug. The cells were treated with the drug for 16 hours to induce the expression of DYRK, and then cultured in the presence of the compound 2 (5 μM) for 4 hours. After the cells were collected, the expression level of cyclin D1 was analyzed by western blotting (see FIG. 8).
# [12] = target: T5, DYRK1B (Homo sapiens, UniProt Q9Y463); experiment: as above; format: cell-based
# T5 construct: expressed in transfected cells; host or cells: HEK293 Flp-In
# T5 sequence (Q9Y463 whole entry, species assumed): as the sequence (Q9Y463 whole entry) above
# Description: as §1, §2
# [13] = target: T2, DYRK2; experiment: as above; format: cell-based
# Description: as §1, §2
SMILES,tau phosphorylation in cells [1],tau phosphorylation caused by the cold water stress (brain) [2],inhibition of the CLK1 activity [3] [%],inhibition of the DYRKIB activity [4] [%],inhibition of the CLK2 activity [5] [%],inhibition of the DYRK1A activity [6] [%],inhibition of the DYRK2 activity [7] [%],inhibition of the CLK3 activity [8] [%],inhibition of the DYRK3 activity [9] [%],number of proliferating cells (BrdU positive) in the subgranular zone of the dentate gyrus of the hippocampus [10],"expression level of cyclin D1 ([11]; DYRKIA cell line, compound 5 μM for 4 hours, lane 2 of FIG. 8)","reduction in cyclin D1 by inducing the expression of DYRK ([11]; DYRKIA expression induced 16 hours, then compound 5 μM for 4 hours, lane 4 of FIG. 8)","expression level of cyclin D1 ([12]; DYRK1B cell line, compound 5 μM for 4 hours, lane 6 of FIG. 8)","reduction in cyclin D1 by inducing the expression of DYRK ([12]; DYRK1B expression induced 16 hours, then compound 5 μM for 4 hours, lane 8 of FIG. 8)","expression level of cyclin D1 ([13]; DYRK2 cell line, compound 5 μM for 4 hours, lane 10 of FIG. 8)","reduction in cyclin D1 by inducing the expression of DYRK ([13]; DYRK2 expression induced 16 hours, then compound 5 μM for 4 hours, lane 12 of FIG. 8)"
"COc1ccc2c([nH]c3c(C)nccc32)c1C#C[Si](C)(C)C [compound 3, 8-[2-(trimethylsilyl)ethynyl]harmine]",inhibited,,,,,,,,,,,,,,,
"CCN1/C(=C/C(C)=O)Sc2ccc3c(c21)CCO3 [compound 1, (Z)-1-[1-ethyl-7,8-dihydrobenzofuro[4,5-d]thiazol-2(1H)-ylidene]propan-2-one]",,inhibited,99,99,98,98,100,80,100,,,,,,,
"CCN1/C(=C/C(C)=O)Sc2ccc3occc3c21 [compound 2, (Z)-1-[1-ethyl-7,8-benzofuro[4,5-d]thiazol-2(1H)-ylidene]propan-2-one]",,inhibited,,,,,,,,significantly large,increased,corrected,increased,corrected,increased,corrected
